Columns and labels:
Format in all cases: cell-based
[1] = molecular target: T1, mTAAR7f (Mus musculus, UniProt Q5QD08); assay: TAAR reporter gene assay, mTAAR7f; set-up: Full Taar coding regions were cloned into pcDNA3.1-(Invitrogen); Rho tag (first 20 aa of bovine rhodopsin + linker); expressed in transfected cells; host or cells: HEK293
T1 sequence (Q5QD08 1-358): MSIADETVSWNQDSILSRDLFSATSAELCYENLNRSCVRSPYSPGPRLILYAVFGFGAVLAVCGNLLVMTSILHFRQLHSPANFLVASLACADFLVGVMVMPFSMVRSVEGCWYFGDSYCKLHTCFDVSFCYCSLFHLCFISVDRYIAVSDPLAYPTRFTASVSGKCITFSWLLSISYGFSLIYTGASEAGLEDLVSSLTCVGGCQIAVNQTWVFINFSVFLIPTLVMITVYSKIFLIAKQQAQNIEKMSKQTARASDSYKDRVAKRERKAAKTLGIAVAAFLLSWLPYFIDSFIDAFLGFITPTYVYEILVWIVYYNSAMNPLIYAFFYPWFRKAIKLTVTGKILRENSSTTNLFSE
From the text: Here, we set out to identify agonists for additional mouse and rat TAARs. We examined odor response profiles using a previously established reporter gene assay based on cAMP-dependent odor transduction in olfactory sensory neurons (40, 42). Briefly, TAAR plasmids were transfected into HEK293 cells along with a cAMP-dependent reporter gene encoding secreted alkaline phosphatase (CRE-SEAP). TAARs were expressed both in unmodified form and as fusion proteins with an N-terminal sequence of bovine rhodopsin (‘Rho tag’) that promotes cell surface expression of some chemosensory receptors (35). Transfected cells were incubated with test chemicals, and phosphatase activity was quantified with a fluorescent substrate as a reporter for TAAR activation. In initial experiments, we tested 38 different odorant mixtures containing 244 structurally diverse test chemicals (2-5 μM) for the ability to activate each mTAAR. […]
(§1) TAAR functional assays. […] Fluorescence was measured on an EnVision plate reader (Perkin Elmer) and SEAP activity graphed as relative fluorescence of a phosphatase substrate.
TAAR functional assays. […] SEAP activity is measured as fluorescence resulting from dephosphorylation of a substrate, 4-methylumbelliferyl phosphate. Fluorescence values were obtained using an EnVision plate reader (Perkin Elmer) and are reported directly without normalization. […]

[2] = molecular target: T2, mTAAR7e (Mus musculus, UniProt Q5QD09); assay: TAAR reporter gene assay, mTAAR7e
T2 construct: Full Taar coding regions were cloned into pcDNA3.1-(Invitrogen); Rho tag (first 20 aa of bovine rhodopsin + linker); expressed in transfected cells; host or cells: HEK293
T2 sequence (Q5QD09 1-358): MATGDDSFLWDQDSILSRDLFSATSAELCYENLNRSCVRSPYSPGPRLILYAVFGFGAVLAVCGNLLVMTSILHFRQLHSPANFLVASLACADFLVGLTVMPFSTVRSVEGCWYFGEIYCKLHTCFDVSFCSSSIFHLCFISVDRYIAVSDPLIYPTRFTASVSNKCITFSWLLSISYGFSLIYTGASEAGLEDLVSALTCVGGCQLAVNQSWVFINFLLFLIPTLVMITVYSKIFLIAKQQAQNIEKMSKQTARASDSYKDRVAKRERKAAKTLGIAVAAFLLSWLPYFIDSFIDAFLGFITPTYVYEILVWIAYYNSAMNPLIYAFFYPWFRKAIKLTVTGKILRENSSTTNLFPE
From the text: Here, we set out to identify agonists for additional mouse and rat TAARs. We examined odor response profiles using a previously established reporter gene assay based on cAMP-dependent odor transduction in olfactory sensory neurons (40, 42). Briefly, TAAR plasmids were transfected into HEK293 cells along with a cAMP-dependent reporter gene encoding secreted alkaline phosphatase (CRE-SEAP). TAARs were expressed both in unmodified form and as fusion proteins with an N-terminal sequence of bovine rhodopsin (‘Rho tag’) that promotes cell surface expression of some chemosensory receptors (35). Transfected cells were incubated with test chemicals, and phosphatase activity was quantified with a fluorescent substrate as a reporter for TAAR activation. In initial experiments, we tested 38 different odorant mixtures containing 244 structurally diverse test chemicals (2-5 μM) for the ability to activate each mTAAR. Subsequently, we tested 73 amines that included known mTAAR agonists and related chemicals for the ability to activate each rTAAR.
as §1

[3] = molecular target: T3, mouse TAAR4 (Mus musculus, UniProt Q5QD15); assay: TAAR4 CRE-SEAP reporter gene assay in transfected HEK293 cells; conditions: 10 μM
T3 construct: Full Taar coding regions were cloned into pcDNA3.1-(Invitrogen); expressed in transfected cells; host or cells: HEK293
T3 sequence (Q5QD15 1-347): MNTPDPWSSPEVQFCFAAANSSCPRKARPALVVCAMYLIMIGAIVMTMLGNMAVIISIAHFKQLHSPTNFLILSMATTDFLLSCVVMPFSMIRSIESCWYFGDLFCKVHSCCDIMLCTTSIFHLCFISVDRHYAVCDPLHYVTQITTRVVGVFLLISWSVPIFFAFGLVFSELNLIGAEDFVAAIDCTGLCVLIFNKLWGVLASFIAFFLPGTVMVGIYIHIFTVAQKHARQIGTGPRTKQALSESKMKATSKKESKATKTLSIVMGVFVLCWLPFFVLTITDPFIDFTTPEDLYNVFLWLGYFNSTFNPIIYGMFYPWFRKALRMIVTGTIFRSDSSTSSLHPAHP
Experimental: HEK293 cells were co-transfected with TAAR expression plasmids and a cAMPdependent reporter gene encoding secreted alkaline phosphatase (CRE-SEAP). Transfected cells were incubated with urine extracts from different mammalian species, and phosphatase activity was quantified with a fluorescent substrate as a reporter for TAAR activation.
Test urines were diluted in serum-free media containing penicillin G (100 Units/ml, Invitrogen) and streptomycin sulfate (100 mg/ml, Invitrogen). SEAP activity is measured as fluorescence resulting from dephosphorylation of a substrate, 4-methylumbelliferyl phosphate. Fluorescence values were obtained using an EnVision plate reader (Perkin Elmer) and are reported directly without normalization.

SMILES | mTAAR7f activation [1] | mTAAR7e activation [2] | TAAR4 activation [3]
CN(C)CCc1ccccc1 [ligand 6, N,N-dimethyl-2-phenylethylamine] | not | activated | –
CN(C)C1CCCCC1 [ligand 10, N,N-dimethylcyclohexylamine] | activated | not | –
NCCc1ccccc1 [2-phenylethylamine] | – | – | activates TAAR4
